Assay results reported in patent US10280170B2, “Substituted 4,5,6,7-tetrahydro-pyrazolo[1,5-a]pyrazine derivatives and 5,6,7,8-tetrahydro-4H-pyrazolo[1,5-a][1,4]diazepine derivatives as Ros1 inhibitors” (Janssen Pharmaceutica NV, priority 2014, dated 2019).
Like-named read-outs stand apart in the source and are kept apart here.

Tests used:
Ros1 enzyme = target: T1, Ros1 enzyme (Homo sapiens, UniProt P08922); test: Ros1 enzymatic assay; assay type: biochemical
T1 construct: 0.5 μg/ml Ros1 enzyme
T1 sequence (P08922 28-2347): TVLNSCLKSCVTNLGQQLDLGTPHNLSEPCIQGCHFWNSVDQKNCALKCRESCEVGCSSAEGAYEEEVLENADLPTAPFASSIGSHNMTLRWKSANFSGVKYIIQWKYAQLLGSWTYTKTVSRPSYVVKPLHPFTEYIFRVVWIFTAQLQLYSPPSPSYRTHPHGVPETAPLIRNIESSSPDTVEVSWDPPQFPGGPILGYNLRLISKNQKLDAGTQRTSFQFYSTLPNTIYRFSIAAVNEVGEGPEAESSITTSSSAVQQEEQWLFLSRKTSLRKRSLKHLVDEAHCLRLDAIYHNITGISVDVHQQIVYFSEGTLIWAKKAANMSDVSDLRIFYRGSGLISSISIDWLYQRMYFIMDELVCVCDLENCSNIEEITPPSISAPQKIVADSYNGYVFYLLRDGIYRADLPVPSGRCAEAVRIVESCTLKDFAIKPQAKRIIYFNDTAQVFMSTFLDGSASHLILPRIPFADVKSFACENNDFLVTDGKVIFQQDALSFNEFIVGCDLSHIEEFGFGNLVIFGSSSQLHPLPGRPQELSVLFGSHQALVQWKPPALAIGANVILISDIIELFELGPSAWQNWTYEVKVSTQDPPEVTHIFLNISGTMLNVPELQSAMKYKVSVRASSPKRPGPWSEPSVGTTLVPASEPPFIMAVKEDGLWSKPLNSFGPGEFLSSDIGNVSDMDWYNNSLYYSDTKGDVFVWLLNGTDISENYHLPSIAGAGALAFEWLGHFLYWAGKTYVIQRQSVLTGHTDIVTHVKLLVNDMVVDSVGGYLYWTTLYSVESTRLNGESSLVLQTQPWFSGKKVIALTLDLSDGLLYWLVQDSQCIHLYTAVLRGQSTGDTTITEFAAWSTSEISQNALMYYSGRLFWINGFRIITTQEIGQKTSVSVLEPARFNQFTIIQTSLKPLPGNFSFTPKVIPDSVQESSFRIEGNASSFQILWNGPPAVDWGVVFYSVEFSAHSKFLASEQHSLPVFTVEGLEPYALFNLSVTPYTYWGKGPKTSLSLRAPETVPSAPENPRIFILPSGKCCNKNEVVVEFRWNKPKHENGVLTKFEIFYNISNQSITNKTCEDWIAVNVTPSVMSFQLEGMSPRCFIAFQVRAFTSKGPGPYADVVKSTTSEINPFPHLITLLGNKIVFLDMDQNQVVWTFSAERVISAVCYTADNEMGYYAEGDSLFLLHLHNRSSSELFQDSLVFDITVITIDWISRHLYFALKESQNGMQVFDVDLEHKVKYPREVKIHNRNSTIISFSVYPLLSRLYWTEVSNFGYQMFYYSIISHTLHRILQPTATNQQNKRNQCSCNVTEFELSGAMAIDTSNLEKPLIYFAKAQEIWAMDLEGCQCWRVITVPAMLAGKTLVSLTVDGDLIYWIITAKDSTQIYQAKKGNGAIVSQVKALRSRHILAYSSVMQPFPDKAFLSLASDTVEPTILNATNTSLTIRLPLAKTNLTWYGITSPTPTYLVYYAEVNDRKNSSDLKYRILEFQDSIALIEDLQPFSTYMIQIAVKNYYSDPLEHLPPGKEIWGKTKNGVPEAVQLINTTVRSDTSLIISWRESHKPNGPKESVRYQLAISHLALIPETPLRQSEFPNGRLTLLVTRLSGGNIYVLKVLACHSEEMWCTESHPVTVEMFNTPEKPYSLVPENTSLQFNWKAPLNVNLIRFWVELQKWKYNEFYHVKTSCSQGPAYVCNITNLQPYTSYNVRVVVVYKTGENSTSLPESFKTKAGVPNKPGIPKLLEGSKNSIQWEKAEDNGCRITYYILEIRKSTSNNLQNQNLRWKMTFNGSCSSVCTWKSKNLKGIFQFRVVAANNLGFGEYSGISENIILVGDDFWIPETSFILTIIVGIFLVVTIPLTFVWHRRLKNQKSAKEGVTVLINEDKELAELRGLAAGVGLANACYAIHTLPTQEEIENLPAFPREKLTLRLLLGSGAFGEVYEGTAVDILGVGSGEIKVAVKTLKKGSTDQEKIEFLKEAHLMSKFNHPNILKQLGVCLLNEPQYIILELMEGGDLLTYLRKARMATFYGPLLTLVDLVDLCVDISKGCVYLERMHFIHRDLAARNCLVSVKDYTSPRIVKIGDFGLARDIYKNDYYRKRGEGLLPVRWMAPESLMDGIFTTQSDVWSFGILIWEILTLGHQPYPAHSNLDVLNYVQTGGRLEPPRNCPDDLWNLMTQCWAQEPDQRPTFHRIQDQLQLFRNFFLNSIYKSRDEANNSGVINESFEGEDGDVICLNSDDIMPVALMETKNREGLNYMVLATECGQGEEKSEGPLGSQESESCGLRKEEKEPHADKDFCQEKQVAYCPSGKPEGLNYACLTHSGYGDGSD
Procedure, shortened: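 Peptide phosphorylation by Ros1 is measured by 33P transfer from 20 μM ATP (as prepared in substrate mix) over 2 h at ambient temperature, pH 7.5 with Mg2+.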

[1] = target: T2, Ba/F3 cells containing Ros1 wild-type protein (Homo sapiens, UniProt P08922, cells depend on it, form not given); test: Ba/F3-Ros1 cell proliferation assay, wild-type Ros1; assay type: cell-based, murine; conditions: without IL-3
T2 construct: The background only speaks of 'a number of different unrelated proteins' and names SLC34A2-ROS1 for HCC78 cells
T2 sequence (P08922 whole entry, stated change not applied): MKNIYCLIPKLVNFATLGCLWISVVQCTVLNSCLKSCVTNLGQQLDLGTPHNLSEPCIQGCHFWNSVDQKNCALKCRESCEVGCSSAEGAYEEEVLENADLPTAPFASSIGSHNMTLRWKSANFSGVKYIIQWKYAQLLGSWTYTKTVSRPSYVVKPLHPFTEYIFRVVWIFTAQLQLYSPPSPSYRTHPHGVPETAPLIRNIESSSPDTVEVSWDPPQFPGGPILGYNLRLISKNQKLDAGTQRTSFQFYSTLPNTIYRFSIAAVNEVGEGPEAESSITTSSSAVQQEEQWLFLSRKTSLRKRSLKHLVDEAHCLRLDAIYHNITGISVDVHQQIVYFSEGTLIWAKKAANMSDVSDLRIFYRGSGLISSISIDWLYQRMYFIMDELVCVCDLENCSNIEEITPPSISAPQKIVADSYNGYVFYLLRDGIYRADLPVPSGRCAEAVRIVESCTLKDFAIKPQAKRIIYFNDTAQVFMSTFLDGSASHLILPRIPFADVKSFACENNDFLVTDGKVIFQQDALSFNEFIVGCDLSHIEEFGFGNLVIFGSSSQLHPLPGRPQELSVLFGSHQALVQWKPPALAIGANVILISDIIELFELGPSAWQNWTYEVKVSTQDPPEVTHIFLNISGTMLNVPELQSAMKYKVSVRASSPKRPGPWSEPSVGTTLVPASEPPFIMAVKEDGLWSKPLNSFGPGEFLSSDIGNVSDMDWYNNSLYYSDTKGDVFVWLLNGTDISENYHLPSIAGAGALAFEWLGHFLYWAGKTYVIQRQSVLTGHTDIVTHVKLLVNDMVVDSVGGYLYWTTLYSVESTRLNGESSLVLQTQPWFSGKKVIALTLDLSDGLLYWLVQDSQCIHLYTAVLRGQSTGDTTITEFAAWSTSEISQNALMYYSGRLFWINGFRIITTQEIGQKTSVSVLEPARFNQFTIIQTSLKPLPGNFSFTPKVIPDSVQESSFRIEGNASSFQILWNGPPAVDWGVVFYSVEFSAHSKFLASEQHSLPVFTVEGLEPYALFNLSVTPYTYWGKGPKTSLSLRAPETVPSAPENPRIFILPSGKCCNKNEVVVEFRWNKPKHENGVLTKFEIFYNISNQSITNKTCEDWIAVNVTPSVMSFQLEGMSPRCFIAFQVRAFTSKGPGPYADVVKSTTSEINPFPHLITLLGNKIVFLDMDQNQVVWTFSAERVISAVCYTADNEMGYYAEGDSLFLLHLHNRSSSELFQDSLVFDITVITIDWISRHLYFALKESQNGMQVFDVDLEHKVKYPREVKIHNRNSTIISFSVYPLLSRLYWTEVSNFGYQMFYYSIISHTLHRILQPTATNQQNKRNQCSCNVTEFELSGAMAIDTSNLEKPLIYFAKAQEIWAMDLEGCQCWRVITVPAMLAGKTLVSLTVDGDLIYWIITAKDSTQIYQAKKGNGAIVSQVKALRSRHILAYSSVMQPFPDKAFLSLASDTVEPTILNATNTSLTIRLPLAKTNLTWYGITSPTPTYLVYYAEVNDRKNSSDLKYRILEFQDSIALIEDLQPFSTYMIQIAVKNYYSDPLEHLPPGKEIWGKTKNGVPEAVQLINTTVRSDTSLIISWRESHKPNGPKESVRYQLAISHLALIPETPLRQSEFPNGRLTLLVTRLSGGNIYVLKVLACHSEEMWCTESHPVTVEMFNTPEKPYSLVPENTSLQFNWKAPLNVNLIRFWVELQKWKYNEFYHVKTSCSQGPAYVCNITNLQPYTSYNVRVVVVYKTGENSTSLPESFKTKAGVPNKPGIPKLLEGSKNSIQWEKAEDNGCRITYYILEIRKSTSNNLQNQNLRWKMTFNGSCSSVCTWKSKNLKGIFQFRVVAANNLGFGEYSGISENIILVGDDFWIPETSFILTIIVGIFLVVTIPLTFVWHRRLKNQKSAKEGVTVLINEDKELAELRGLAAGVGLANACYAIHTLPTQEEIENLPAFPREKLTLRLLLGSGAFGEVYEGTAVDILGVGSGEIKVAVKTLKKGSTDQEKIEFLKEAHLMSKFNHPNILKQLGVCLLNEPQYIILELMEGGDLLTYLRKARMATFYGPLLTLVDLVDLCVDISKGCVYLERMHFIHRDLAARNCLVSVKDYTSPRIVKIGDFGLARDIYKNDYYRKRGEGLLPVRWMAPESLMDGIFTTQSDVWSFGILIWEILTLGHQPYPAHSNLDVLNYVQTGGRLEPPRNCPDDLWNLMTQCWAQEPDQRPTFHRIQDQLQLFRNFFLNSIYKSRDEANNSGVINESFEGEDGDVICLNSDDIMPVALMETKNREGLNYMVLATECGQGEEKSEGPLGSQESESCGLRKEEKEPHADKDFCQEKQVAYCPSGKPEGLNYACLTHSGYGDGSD
Procedure, shortened: (§1)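 Ba/F3 cells expressing wild-type, L2026M or G2032R Ros1 (20000 per well) were incubated with DMSO-solubilized compounds in phenol red-free RPMI-1640 with 10% FBS and 2 mM L-glutamine at 37 °C, 5% CO2 for 24 hours. Viability was then read by Alamar Blue fluorescence (ex 540/em 590 nm) after 4 h.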

[2] = target: Ba/F3 cells containing Ros1 with a mutation at the gatekeeper residue (L2026M) (Homo sapiens, UniProt P08922, L2026M, cells depend on it, form not given); test: Ba/F3-Ros1 cell proliferation assay, L2026M gatekeeper mutant; assay type: cell-based, murine; conditions: without IL-3
Ba/F3 cells containing Ros1 with a mutation at the gatekeeper residue (L2026M), sequence (P08922 whole entry L2026M, form open): as the sequence (P08922 whole entry, stated change not applied) above, with L2026M counted along it
Procedure, shortened: as §1

[3] = system: Ba/F3 cells containing Ros1 wild-type protein + IL-3; test: Ba/F3-Ros1 cell proliferation counter-screen, wild-type protein in the presence of 10 ng/ml murine IL-3; assay type: cell-based; conditions: Mus musculus, BaF3, 24 h, read-out: BaF3-ROS1 + IL3 pIC50 (converted)
Procedure, shortened: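 Proliferation of IL-3-supplemented (10 ng/ml, murine) Ba/F3 cells bearing wild-type Ros1 is measured after 24 h compound treatment. Alamar Blue conversion over 4 h gives fluorescence at 590 nm.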

[4] = system: HCC78 non-small cell lung cancer cells; test: HCC78 cell proliferation assay; assay type: cell-based; conditions: for EC50: Homo sapiens, HCC78, 96 h, read-out: HCC-78 PROL pEC50 (converted)
Experimental: HCC78 Cell Proliferation Assay
Approximately 1000 HCC78 non-small cell lung cancer cells in 180 μl of cell culture medium (RPMI-1640, 10% FBS, 2 mM L-Glutamine, 10 mM Hepes, 1 mM sodium pyruvate, 4.5 g/L glucose, 1.5 g/L sodium bicarbonate, 25 μg/ml Gentamycin) were seeded in each well of a 96-well polystyrene, tissue-culture treated plate and incubated at 37° C. and 5% CO2. After 24 hours, compounds were diluted in cell culture medium from which 20 μl was added to the wells containing cells and incubated for 4 days at 37° C. and 5% CO2. A 5 mg/ml solution of the tetrazolium dye MTT was prepared in PBS (phosphate-buffered saline) and 25 μl was added to each well. After 2 hours the medium was removed and replaced by 125 μL of 4/1 DMSO/glycine buffer (0.1M glycine, 0.1M NaCl, pH 10.5) before absorbance was determined at 538 nm.

[5] = Ros1 enzymatic assay, read-out: ROS1 pIC50 (converted)
[6] = counter-screen, wild-type, 10 ng/ml murine IL-3

Row | EC50 ([4]; HCC78 cells, 4 days, MTT) [nM] | HCC-78 PROL pEC50 ([4]; HCC78 cells, 4 days, MTT) | Compound | IC50 (Ros1 enzyme; [5]) [nM] | BaF3-ROS1-IL3 pIC50 [1] | Ba/F3 Ros1 L2026M (-IL-3) pIC50 [2] | CC50 [3] [nM] | EC50 [4] [nM] | melting point [°C] | CC50 [3, 6] [nM] | IC50 (Ros1 enzyme; ROS1 pIC50, Ros1 enzymatic assay) [nM]
1 | – | – | COc1cc(-c2c(-c3ccncc3)nn3c2C(=O)N(CCO)CC3)cc(OC)c1OCc1ccc(C(C)C)cc1 [Compound 36] | 5010 | 5.8 | 5.7 | > 10000 | > 10000 | 176 | – | –
2 | 1260 | – | CC(C)c1ccc(COc2ccc(-c3c(-c4ccncc4)nn4c3C(=O)N(CC3COC(C)(C)O3)CC4)cc2)cc1 (stereo not drawn) [Compound 42] | 398 | 6.7 | 6.3 | – | – | 114 | > 10000 | –
3 | – | 6.9 | CC(C)c1ccc(COc2ccc(-c3c(-c4ccncc4)nn4c3C(=O)N(CC(O)CO)CC4)cc2)cc1 (stereo not drawn) [Compound 43] | 50.1 | 7.4 | 7.3 | – | – | 190 | > 10000 | –
4 | – | – | CC(C)OCC(O)CN1CCn2nc(-c3ccncc3)c(-c3ccc(OCc4ccc(C(C)C)cc4)cc3)c2C1=O (stereo not drawn) [Compound 45] | 158 | 6.7 | 6.6 | > 10000 | 1260 | 148 | – | –
5 | – | – | COCCN1CCn2nc(-c3ccncc3)c(-c3ccc(OCc4ccc(C(C)C)cc4)cc3)c2C1=O [Compound 50] | 50.1 | 7.1 | 7.2 | > 10000 | 158 | 167 | – | –
6 | – | – | CC(C)c1ccc(COc2ccc(-c3c(-c4ccncc4)nn4c3C(=O)N(CCS(C)(=O)=O)CC4)cc2)cc1 [Compound 52] | 50.1 | 7.6 | 6.9 | > 10000 | 251 | 219 | – | –
7 | – | – | CC(C)c1ccc(COc2ccc(-c3c(-c4ccncc4)nn4c3C(=O)N(CC3CCCO3)CC4)cc2)cc1 (stereo not drawn) [Compound 55] | 126 | 7.0 | 6.8 | > 10000 | 794 | 165 | – | –
8 | – | – | CC(C)c1ccc(COc2ccc(-c3c(-c4ccncc4)nn4c3C(=O)N(CC(=O)N(C)C)CC4)cc2)cc1 [Compound 64] | 79.4 | 7.1 | 6.6 | > 10000 | 631 | 199 | – | –
9 | – | – | CC(C)NC(=O)CN1CCn2nc(-c3ccncc3)c(-c3ccc(OCc4ccc(C(C)C)cc4)cc3)c2C1=O [Compound 65] | 100 | 7.2 | 6.7 | > 10000 | 316 | 159 | – | –
10 | – | – | CCOP(=O)(CCN1CCn2nc(-c3ccncc3)c(-c3ccc(OCc4ccc(C(C)C)cc4)cc3)c2C1=O)OCC [Compound 68] | – | 6.7 | 6.5 | 2510 | 2510 | 90 | – | 316
11 | – | – | COc1cc(-c2c(-c3ccncc3)nn3c2C(=O)NCC3)ncc1OCc1ccc(C(C)C)cc1 [Compound 72] | 63.1 | 7.2 | 6.0 | > 10000 | 251 | 231 | – | –
12 | – | – | CC(C)c1ccc(COc2cc(F)c(-c3c(-c4ccncc4)nn4c3C(=O)NCC4)cn2)cc1 [Compound 73] | 15.8 | 7.9 | 7.4 | > 10000 | 126 | 207 | – | –
13 | – | – | CC(C)c1ccc(COc2ccc(-c3c(-c4ccncc4)nn4c3C(=O)NCC4)c(F)n2)cc1 [Compound 74] | 15.8 | 8.1 | 7.5 | > 10000 | 12.6 | 275 | – | –
14 | – | – | CC(C)c1ccc(COc2ncc(-c3c(-c4ccncc4)nn4c3C(=O)NCC4)cn2)cc1 [Compound 75] | 12.6 | 7.9 | 7.5 | > 10000 | 63.1 | 126 | – | –
15 | – | – | CC(C)c1ccc(COc2cnc(-c3c(-c4ccncc4)nn4c3C(=O)NCC4)cn2)cc1 [Compound 76] | 251 | 6.8 | 7.0 | > 10000 | 794 | 225 | – | –
16 | 794 | – | Cc1cc(C(C)C)ccc1COc1ccc(-c2c(-c3ccncc3)nn3c2C(=O)NCC3)cc1 [Compound 78] | 251 | 7.1 | 6.9 | – | – | 247 | > 10000 | –
17 | – | – | CC(C)c1ccc(COc2ccc(-c3c(-c4ccncc4)nn4c3C(=O)N(CCO)CC4)cc2)cc1O [Compound 79] | 25.1 | 7.8 | 7.3 | > 10000 | 2510 | 236 | – | –
18 | – | – | CC(C)c1ccc(COc2ccc(-c3c(-c4ccncc4)nn4c3C(=O)N(CCO)CC4)cc2)cn1 [Compound 81] | 63.1 | 7.3 | 6.5 | > 10000 | 158 | 93 | – | –
19 | 316 | – | CC(C)c1ccc(COc2ccc(-c3c(-c4ccncc4)nn4c3C(=O)NCC4)cc2)cc1C#N [Compound 85] | 39.8 | 7.4 | 7.1 | – | – | 240 | > 10000 | –
20 | – | – | CC(C)c1ccc(COc2ccc(-c3c(-c4ccncc4)nn4c3C(=O)N(CCO)CC4)cc2)cc1C#N [Compound 87] | 39.8 | 7.3 | 7.2 | > 10000 | 200 | 160 | – | –
21 | 79.4 | – | CC(C)c1ccc(COc2ccc(-c3c(-c4ccncc4)nn4c3C(=O)NCC4)cc2)cc1CCN [Compound 88] | 12.6 | 7.1 | 6.8 | – | – | 181 | > 10000 | –
22 | – | – | COCCOc1cc(COc2ccc(-c3c(-c4ccncc4)nn4c3C(=O)NCC4)cc2)ccc1C(C)C [Compound 90] | 79.4 | 7.2 | 7.4 | > 10000 | 158 | 209 | – | –
23 | – | – | CC(C)c1ccc(COc2ccc(-c3c(-c4ccncc4)nn4c3C(=O)N(CCO)CC4)cc2)c(F)c1 [Compound 92] | 50.1 | 7.2 | 6.7 | > 10000 | 200 | 132 | – | –
24 | – | – | CC(C)c1ccc(COc2ccc(-c3c(-c4ccncc4)nn4c3C(=O)N(CCO)CC4)cc2)cc1F [Compound 93] | 79.4 | 7.2 | 7.0 | > 10000 | 398 | 183 | – | –
25 | – | – | CC(C)c1cc(F)c(COc2ccc(-c3c(-c4ccncc4)nn4c3C(=O)N(CCO)CC4)cc2)c(F)c1 [Compound 94] | 100 | 7.0 | 6.6 | > 10000 | 398 | 194 | – | –
26 | – | 6.5 | CC(C)c1cc(F)c(COc2ccc(-c3c(-c4ccncc4)nn4c3C(=O)N(CC(O)CO)CC4)cc2)cc1F (stereo not drawn) [Compound 98] | 251 | 6.8 | 6.6 | – | – | 184 | > 10000 | –
